From the NIST ThermoML archive (doi:10.1021/je060271a)
± gives the expanded uncertainty stated by the source.

Conditions: Liquid, Vibrating tube method

CCCC(=O)OCC(COC(=O)CCC)(COC(=O)CCC)COC(=O)CCC [pentaerythritol tetrabutyrate]
Conditions	mass density [kg/m3]
343.14 K, 27001 kPa	1027.8 ± 1.2
343.14 K, 27378 kPa	1028.1 ± 1.2
343.14 K, 27722 kPa	1028.3 ± 1.2
343.14 K, 28167 kPa	1028.7 ± 1.2
343.14 K, 28200 kPa	1028.7 ± 1.2
343.14 K, 28241 kPa	1028.7 ± 1.2
343.14 K, 29595 kPa	1029.4 ± 1.2
343.14 K, 29634 kPa	1029.5 ± 1.2
343.14 K, 29666 kPa	1029.7 ± 1.2
343.14 K, 29705 kPa	1029.5 ± 1.2
343.14 K, 30226 kPa	1030 ± 1.2
343.14 K, 30268 kPa	1029.9 ± 1.2
343.14 K, 30303 kPa	1029.9 ± 1.2
343.14 K, 30331 kPa	1030 ± 1.2
343.14 K, 30366 kPa	1030.1 ± 1.2
343.14 K, 30394 kPa	1030.1 ± 1.2
343.14 K, 30429 kPa	1029.9 ± 1.2
343.14 K, 30464 kPa	1030.1 ± 1.2
343.14 K, 30785 kPa	1030.4 ± 1.2
343.14 K, 30814 kPa	1030.4 ± 1.2
343.14 K, 30849 kPa	1030.4 ± 1.2
343.14 K, 30886 kPa	1030.3 ± 1.2
343.14 K, 30916 kPa	1030.4 ± 1.2
343.14 K, 32186 kPa	1031.3 ± 1.2
343.14 K, 32224 kPa	1031.2 ± 1.2
343.14 K, 32886 kPa	1031.6 ± 1.2
343.14 K, 32998 kPa	1031.7 ± 1.2
343.14 K, 33543 kPa	1032 ± 1.3
343.14 K, 33577 kPa	1032.2 ± 1.3
343.14 K, 33620 kPa	1032.2 ± 1.3
343.14 K, 33664 kPa	1032.2 ± 1.3
343.14 K, 33699 kPa	1032.2 ± 1.3
343.14 K, 33741 kPa	1032.2 ± 1.3
343.14 K, 33784 kPa	1032.2 ± 1.3
343.14 K, 33820 kPa	1032.2 ± 1.3
343.14 K, 33863 kPa	1032.3 ± 1.3
343.14 K, 33907 kPa	1032.4 ± 1.3
343.15 K, 454.1 kPa	1008.4 ± 1.2
343.15 K, 473 kPa	1008.4 ± 1.2
343.15 K, 494.2 kPa	1008.5 ± 1.2
343.15 K, 517.1 kPa	1008.3 ± 1.2
343.15 K, 5946.5 kPa	1012.7 ± 1.2
343.15 K, 6013.6 kPa	1012.8 ± 1.2
343.15 K, 6051.1 kPa	1012.8 ± 1.2
343.15 K, 6081.9 kPa	1012.8 ± 1.2
343.15 K, 7040 kPa	1013.6 ± 1.2
343.15 K, 7078.5 kPa	1013.6 ± 1.2
343.15 K, 7108.1 kPa	1013.7 ± 1.2
343.15 K, 7140.9 kPa	1013.7 ± 1.2
343.15 K, 8048.2 kPa	1014.3 ± 1.2
343.15 K, 8412.3 kPa	1014.7 ± 1.2
343.15 K, 8447.3 kPa	1014.8 ± 1.2
343.15 K, 8482.2 kPa	1014.7 ± 1.2
343.15 K, 8511.5 kPa	1014.7 ± 1.2
343.15 K, 8547 kPa	1014.6 ± 1.2
343.15 K, 8583.2 kPa	1014.8 ± 1.2
343.15 K, 8618.9 kPa	1014.8 ± 1.2
343.15 K, 8655.1 kPa	1014.9 ± 1.2
343.15 K, 8686 kPa	1014.8 ± 1.2
343.15 K, 8982.4 kPa	1015 ± 1.2
343.15 K, 9021.7 kPa	1015.1 ± 1.2
343.15 K, 9062.3 kPa	1015.2 ± 1.2
343.15 K, 9096.7 kPa	1015.2 ± 1.2
343.15 K, 9137.8 kPa	1015.1 ± 1.2
343.15 K, 9179.2 kPa	1015.3 ± 1.2
343.15 K, 9602.2 kPa	1015.6 ± 1.2
343.15 K, 9638.9 kPa	1015.4 ± 1.2
343.15 K, 9676.1 kPa	1015.7 ± 1.2
343.15 K, 9713.7 kPa	1015.6 ± 1.2
343.15 K, 9822.7 kPa	1015.8 ± 1.2
343.15 K, 9861.5 kPa	1015.8 ± 1.2
343.15 K, 9900.4 kPa	1015.9 ± 1.2
343.15 K, 9939.7 kPa	1015.8 ± 1.2
343.15 K, 9973.1 kPa	1015.9 ± 1.2
343.15 K, 10013 kPa	1016 ± 1.2
343.15 K, 10053 kPa	1015.8 ± 1.2
343.15 K, 10095 kPa	1015.9 ± 1.2
343.15 K, 10129 kPa	1015.9 ± 1.2
343.15 K, 10171 kPa	1016 ± 1.2
343.15 K, 10545 kPa	1016.2 ± 1.2
343.15 K, 10590 kPa	1016.2 ± 1.2
343.15 K, 10635 kPa	1016.3 ± 1.2
343.15 K, 10674 kPa	1016.5 ± 1.2
343.15 K, 10720 kPa	1016.3 ± 1.2
343.15 K, 10767 kPa	1016.4 ± 1.2
343.15 K, 10943 kPa	1016.5 ± 1.2
343.15 K, 10980 kPa	1016.7 ± 1.2
343.15 K, 11011 kPa	1016.6 ± 1.2
343.15 K, 11049 kPa	1016.6 ± 1.2
343.15 K, 11087 kPa	1016.7 ± 1.2
343.15 K, 11125 kPa	1016.7 ± 1.2
343.15 K, 11163 kPa	1016.7 ± 1.2
343.15 K, 11196 kPa	1016.8 ± 1.2
343.15 K, 11235 kPa	1016.8 ± 1.2
343.15 K, 11314 kPa	1016.8 ± 1.2
343.15 K, 11354 kPa	1016.8 ± 1.2
343.15 K, 11388 kPa	1017 ± 1.2
343.15 K, 11428 kPa	1016.8 ± 1.2
343.15 K, 11468 kPa	1017 ± 1.2
343.15 K, 11510 kPa	1017 ± 1.2
343.15 K, 11544 kPa	1017 ± 1.2
343.15 K, 11586 kPa	1017 ± 1.2
343.15 K, 11628 kPa	1017.2 ± 1.2
343.15 K, 11670 kPa	1017.1 ± 1.2
343.15 K, 11714 kPa	1017.1 ± 1.2
343.15 K, 11749 kPa	1017.1 ± 1.2
343.15 K, 11792 kPa	1017.1 ± 1.2
343.15 K, 11837 kPa	1017.3 ± 1.2
343.15 K, 12365 kPa	1017.5 ± 1.2
343.15 K, 12414 kPa	1017.6 ± 1.2
343.15 K, 12458 kPa	1017.7 ± 1.2
343.15 K, 12498 kPa	1017.7 ± 1.2
343.15 K, 12547 kPa	1017.7 ± 1.2
343.15 K, 12597 kPa	1017.8 ± 1.2
343.15 K, 12647 kPa	1017.8 ± 1.2
343.15 K, 12689 kPa	1017.9 ± 1.2
343.15 K, 12739 kPa	1017.8 ± 1.2
343.15 K, 12791 kPa	1018 ± 1.2
343.15 K, 12843 kPa	1017.9 ± 1.2
343.15 K, 12895 kPa	1018 ± 1.2
343.15 K, 12939 kPa	1018 ± 1.2
343.15 K, 12991 kPa	1018.1 ± 1.2
343.15 K, 13044 kPa	1018 ± 1.2
343.15 K, 13098 kPa	1018.2 ± 1.2
343.15 K, 13151 kPa	1018.2 ± 1.2
343.15 K, 13198 kPa	1018.2 ± 1.2
343.15 K, 13252 kPa	1018.1 ± 1.2
343.15 K, 13307 kPa	1018.2 ± 1.2
343.15 K, 13364 kPa	1018.2 ± 1.2
343.15 K, 13420 kPa	1018.4 ± 1.2
343.15 K, 13468 kPa	1018.5 ± 1.2
343.15 K, 13526 kPa	1018.4 ± 1.2
343.15 K, 13584 kPa	1018.5 ± 1.2
343.15 K, 13644 kPa	1018.5 ± 1.2
343.15 K, 13698 kPa	1018.7 ± 1.2
343.15 K, 13772 kPa	1018.6 ± 1.2
343.15 K, 13822 kPa	1018.7 ± 1.2
343.15 K, 13864 kPa	1018.6 ± 1.2
343.15 K, 13901 kPa	1018.7 ± 1.2
343.15 K, 13931 kPa	1018.8 ± 1.2
343.15 K, 13968 kPa	1018.7 ± 1.2
343.15 K, 14005 kPa	1018.7 ± 1.2
343.15 K, 14043 kPa	1018.9 ± 1.2
343.15 K, 14079 kPa	1018.8 ± 1.2
343.15 K, 14110 kPa	1018.9 ± 1.2
343.15 K, 14147 kPa	1018.9 ± 1.2
